Measurements reported in publication PMC9686928, “10-mer and 9-mer WALK Peptides with Both Antibacterial and Anti-Inflammatory Activities” (Antibiotics, 2022).
Values after ≈ are worked out from the molar mass of the structure shown. Where no end group is shown, it is not given here.

What was measured:
[1] = system: Bacillus subtilis ATCC 6633; experiment: microbe, parasite or virus in culture; format: cell-based; conditions: Gram-positive, broth microdilution, Luria-Bertani broth, 1–64 μg/mL two-fold serial dilutions, lowest concentration that completely inhibited growth, triplicate
Method: (§1) The antimicrobial activity of each peptide was assessed against four strains, including two Gram-positive (Bacillus subtilis ATCC 6633 and Staphylococcus aureus ATCC 6538p) and two Gram-negative bacteria (Escherichia coli ATCC 25922 and Shigella dysentariae ATCC 9752) cultured in Luria-Bertani broth media. Antibacterial susceptibility was determined as the MIC value, which was measured using the standard broth microdilution method as described previously. […] Two conventional antibiotics, ampicillin and kanamycin, were used as controls to confirm antibiotic susceptibility. The tests were performed in triplicate, and the MIC values that were reproduced twice or thrice in the three independent measurements were employed to calculate the GM value.

[2] = system: Escherichia coli ATCC 25922; experiment: microbe, parasite or virus in culture; format: cell-based; conditions: Gram-negative, broth microdilution, Luria-Bertani broth, 1–64 μg/mL two-fold serial dilutions, triplicate
Method: as §1

[3] = system: Shigella dysentariae ATCC 9752; experiment: microbe, parasite or virus in culture; format: cell-based; conditions: Gram-negative, broth microdilution, Luria-Bertani broth, 1–64 μg/mL two-fold serial dilutions, triplicate
Method: as §1

[4] = system: Staphylococcus aureus ATCC 6538p; experiment: microbe, parasite or virus in culture; format: cell-based; conditions: Gram-positive, broth microdilution, Luria-Bertani broth, 1–64 μg/mL two-fold serial dilutions, triplicate
Method: as §1

[5] = system: two Gram-positive and two Gram-negative bacterial strains; experiment: Antimicrobial assay, MICs over the four strains (geometric mean); format: cell-based, B. subtilis, S. aureus, E. coli, S. dysentariae; conditions: geometric mean of the MICs against the four strains
Method: as §1

human red blood cells = human red blood cells 10% v/v in PBS, 1 h; for MHC, minimal hemolytic concentration: lowest concentration showing 5% or more hemolysis, 1–64 μg/mL, A550, relative to 0.2% Triton X-100, triplicate
Method: Briefly, suspensions of human red blood cells (10% v/v in PBS) were treated for 1 h with various concentrations (1–64 μg/mL, two-fold serial dilutions) of peptides, followed by measurement of the absorbance of the supernatant at 550 nm. The relative attenuation was determined as the percentage of hemolysis compared to that of the blood suspension treated with 0.2% Triton X-100. The tests were performed in triplicate, and the average values of three independent measurements were recorded.

RAW264.7 cells = conditions: at the concentrations tested, 16 h
Method: (§2) Macrophage cells seeded in 96-well cell culture plates at a density of 3 × 10^4 cells/well were incubated for 24 h, followed by treatment with LPS or individual WALK peptides and subsequent incubation for 16 h. Cell viability was then assessed by the conventional MTT assay. Briefly, the medium in each well was replaced with 100 μL of RPMI medium containing MTT (500 μg/mL). After 2 h of incubation, the medium was discarded and the insoluble formazan in each well was dissolved in 100 μL of DMSO with shaking. The absorbance of the solution at 550 nm was measured using a spectrophotometric microplate reader to determine the percentage of cell viability relative to that of control cells.

[6] = system: LPS-stimulated J774A.1 cells; experiment: Nitric oxide (NO) production, Griess reaction assay; format: cell-based, murine; conditions: LPS 100 ng/mL 16 h; for inhibitory effect against NO production: peptides 8, 4 and 2 μM, pretreatment 5 min, nitrite by Griess
Method: NT, non-treated; LPS, lipopolysaccharides. (A) Cytotoxicity was assessed using the MTT assay. […] (B) Anti-inflammatory potential deduced by NO assay.
The macrophage cells were seeded (3 × 10^4 cells/well) and incubated in 96-well plates for 24 h, followed by pretreatments with the WALK peptides at designated concentrations for 5 min and subsequent stimulation with 100 ng/mL of LPS for 16 h. The nitrite concentration in the culture medium was determined using the Griess reaction assay. Briefly, the culture supernatant (100 μL) was mixed with an equal volume of Griess reagent (1% sulfanilamide, 0.1% N-1-naphthyl ethylenediamine) and incubated for 5 min. The absorbance of the resulting chromophoric azo-derivative molecules was measured at 550 nm using a microplate reader with a fresh culture medium as a blank. The amount of nitrite in each sample was determined using a standard curve generated using a range of dilutions of sodium nitrite solutions.

J774A.1 cells = conditions: peptides 8, 4 and 2 μM, 16 h
Method: (A) Cytotoxicity was assessed using the MTT assay. The cells were treated with lipopolysaccharides (LPS, 100 ng/mL) or peptides (8–2 μM, two-fold serial dilutions) for 16 h, followed by estimating the cell viability as the percentage of surviving cells compared to that of the control cells.
as §2

Compound | MIC, B. subtilis [1] [µg/mL] | MIC, E. coli [2] [µg/mL] | MIC, S. dysentariae [3] [µg/mL] | MIC, S. aureus [4] [µg/mL] | GM, geometric mean of MICs [5] [µg/mL] | MHC, minimal hemolytic concentration (human red blood cells) [µg/mL] | percentage hemolysis (human red blood cells; at 64 μg/mL, relative to 0.2% Triton X-100, average of three measurements) [%] | cytotoxicity (MTT assay) (RAW264.7 cells) | NO inhibition at 8 μM ([6]; peptide 8 μM) | inhibitory effect against NO production [6] | cytotoxicity (MTT assay) (J774A.1 cells) | MIC ([1]; Bacillus subtilis, ATCC6633, read-out: MIC, B. subtilis) [µg/mL] | MIC ([2]; Escherichia coli, ATCC25922) [µg/mL] | MIC ([3]; Shigella, ATCC9752, read-out: MIC, S. dysentariae) [µg/mL] | MIC ([4]; Staphylococcus aureus, ATCC6538P, read-out: MIC, S. aureus) [µg/mL] | geometric mean MIC ([5]; read-out: GM, geometric mean of MICs) [µg/mL]
WLLKWLKKL-NH2 [WALK243.01] | 4 | 4 | 8 | 4 | 4.8 | 32 | – | – | – | – | – | – | – | – | – | –
LKWLLKWLK-NH2 [WALK243.03] | 4 | 8 | 16 | 4 | 6.7 | 32 | – | – | – | – | – | – | – | – | – | –
WLKKLLKWLK-NH2 [WALK244.08] | 2 | 2 | 4 | ≤1 | ≤2.0 | 8 | – | – | – | – | – | – | – | – | – | –
KWLKKLLKWL-NH2 [WALK244.09] | ≤1 | 2 | 2 | 2 | ≤1.7 | 8 | 80.7 | – | – | – | – | – | – | – | – | –
KLLKWLLKW-NH2 [WALK243.05] | 2 | 2 | 16 | 2 | 3.4 | 64 | – | did not demonstrate significant cytotoxicity | – | – | – | – | – | – | – | –
LKKWLKWLL-NH2 [WALK243.07] | 2 | 2 | 4 | 2 | 2.4 | 16 | – | – | – | – | – | – | – | – | – | –
WLKKWLKKLL-NH2 [WALK244.01] | ≤1 | 2 | 2 | 2 | ≤1.7 | 16 | – | – | – | – | – | – | – | – | – | –
WLKKLLKWL-NH2 [WALK243.08] | 2 | 2 | 2 | 2 | 2.0 | 8 | – | – | – | – | – | – | – | – | – | –
KLLKWLKKWL-NH2 [WALK244.05] | 2 | 2 | 4 | 2 | 2.4 | 32 | – | – | near-complete NO inhibition | dose-dependent inhibitory effect | no significant cytotoxicity | – | – | – | – | –
LKKWLKWLLK-NH2 [WALK244.07] | 2 | 2 | 8 | 2 | 2.8 | 32 | – | – | – | dose-dependent inhibitory effect | no significant cytotoxicity | – | – | – | – | –
KWLLKWLKKL-NH2 [WALK244.02] | 2 | 2 | 8 | 2 | 2.8 | 32 | – | – | – | dose-dependent inhibitory effect | no significant cytotoxicity | – | – | – | – | –
KKLLKWLLKW-NH2 [WALK244.06] | 2 | 16 | 16 | 3 | 6.3 | 32 | – | – | – | – | – | – | – | – | – | –
LKWLKWLLK-NH2 [WALK243.06] | 2 | 2 | 8 | 2 | 2.8 | 32 | – | did not demonstrate significant cytotoxicity | – | – | – | – | – | – | – | –
LKWLLKWLKK-NH2 [WALK244.03] | 8 | 8 | 32 | 8 | 11.3 | 64 | – | – | – | – | – | – | – | – | – | –
KWLLKLLKW-NH2 [WALK243.09] | 4 | 8 | 16 | 4 | 6.7 | 64 | – | – | – | – | – | – | – | – | – | –
CC1(C)S[C@@H]2[C@H](NC(=O)[C@H](N)c3ccccc3)C(=O)N2[C@H]1C(=O)O [Ampicillin, ampicillin, reference compound] | – | – | – | – | – | – | – | – | – | – | – | ≤ 1 | ≤ 1 | ≤ 1 | ≤ 1 | ≤ 1
LKWLKKLLKW-NH2 [WALK244.10] | 2 | 8 | 8 | 2 | 4.0 | 32 | – | – | – | – | – | – | – | – | – | –
NC[C@H]1O[C@H](O[C@H]2[C@H](O)[C@@H](O[C@H]3O[C@H](CO)[C@@H](O)[C@H](N)[C@H]3O)[C@H](N)C[C@@H]2N)[C@H](O)[C@@H](O)[C@@H]1O [Kanamycin, kanamycin, reference compound] | 4 (≈ 8.26 µM) | 4 (≈ 8.26 µM) | 8 (≈ 16.5 µM) | 4 (≈ 8.26 µM) | 4.8 | – | – | – | – | – | – | – | – | – | – | –
